Test results from patent publication US10308608B2, “Histone deacetylase inhibitors” (BIOMARIN PHARMACEUTICAL INC., priority 2015, dated 2019).
Where a name gives a salt, the structure may show the parent alone. Read-outs that look alike come from different tables or passages of the source.

Test system: Frataxin (FXN) mRNA
Assay: Effect of HDAC inhibitors on frataxin (FXN) mRNA expression, qRT-PCR in compound-treated iPSC derived neuronal cells
Assay type: cell-based
Settings: iPSC, 24 h
Method: Effect of HDAC Inhibitors on Frataxin (FXN) mRNA Expression
Method: mRNA quantification of compound-treated iPSC derived neuronal cells Neuronal stem cells were cultured in Neurobasal A medium (Life technologies #10888022) supplemented with N2, B27 (Life technologies #17502-048 and #17504-044), L-glutamine (Life technologies #25030081), supplemented with 20 ng/ml EGF (R&D Systems #236-EG) and 20 ng/ml bFGF (BioPioneer # HRP-0011). Neuronal differentiation was initiated by removing growth factors and culturing cells in Neurobasal A with N2 and B27. Cells were allowed to differentiate for 16 days. HDAC inhibitory compound was then added and incubate for 24 h. RNA isolation was performed using the RNeasy Plus mini kit (QIAgen #74134) using a QIAcube instrument per manufacturer's instructions. qRT-PCR was performed using qScript One-Step SYBR Green qRT-PCR Kit (Quanta Biosciences 170-8893BR) with the following conditions: 20 minutes at 50° C., 5 minutes at 95° C., and then 40 cycles of 20 seconds at 95° C., 20 seconds at 55° C., 30 seconds at 72° C. The primer sequences to detect expression of FXN were: 5′-[…]-3′ and 5′-[…]-3′.
The data for the following compounds, for FXN mRNA fold induction at a compound concentration of 0.625 μM are shown in Table 1, where A<1, 1<B<2, 2<C<3, 3<D<5, E>5.

[1] = compound concentration of 0.625 μM, 24 h incubation, read-out: FXN mRNA fold induction
[2] = read-out: FXN mRNA fold induction, compound concentration of 0.625 μM, 24 h incubation

Compound	fold induction at 0.625 µM [1]	fold induction at 0.625 µM [2]
Nc1ccccc1NC(=O)c1ccc(O[C@H]2CCN(CC3CC3)C2)cc1 [Compound 54, (S)-N-(2-aminophenyl)-4-((1-(cyclopropylmethyl)pyrrolidin-3-yl)oxy)benzamide dihydrochloride]	1 to 2	–
CC1(CN2CC[C@H](Oc3ccc(C(=O)Nc4ccccc4N)cc3)C2)CC1 [Compound 55, (S)-N-(2-aminophenyl)-4-((1-((1-methylcyclopropyl)methyl)pyrrolidin-3-yl)oxy)benzamide dihydrochloride]	2 to 3	–
Nc1ccccc1NC(=O)c1ccc(O[C@H]2CCN(CC3CCCCC3)C2)cc1 [Compound 56, (S)-N-(2-aminophenyl)-4-((1-(cyclohexylmethyl)pyrrolidin-3-yl)oxy)benzamide dihydrochloride]	2 to 3	–
Nc1ccccc1NC(=O)c1ccc(O[C@@H]2CCNC2)cc1 [Compound 57, (R)-N-(2-aminophenyl)-4-(pyrrolidin-3-yloxy)benzamide hydrochloride]	2 to 3	–
CN1CC[C@@H](Oc2ccc(C(=O)Nc3ccccc3N)cc2)C1 [Compound 58, (R)-N-(2-aminophenyl)-4-((1-methylpyrrolidin-3-yl)oxy)benzamide]	2 to 3	–
CC(C)CN1CC[C@@H](Oc2ccc(C(=O)Nc3ccccc3N)cc2)C1 [Compound 59, (R)-N-(2-aminophenyl)-4-((1-isobutylpyrrolidin-3-yl)oxy)benzamide dihydrochloride]	1 to 2	–
CC(C)(O)CN1CC[C@@H](Oc2ccc(C(=O)Nc3ccccc3N)cc2)C1 [Compound 60, (R)-N-(2-aminophenyl)-4-((1-(2-hydroxy-2-methylpropyl)pyrrolidin-3-yl)oxy)benzamide dihydrochloride]	1 to 2	–
CC(C)(C)CN1CC[C@@H](Oc2ccc(C(=O)Nc3ccccc3N)cc2)C1 [Compound 61, (R)-N-(2-aminophenyl)-4-((1-neopentylpyrrolidin-3-yl)oxy)benzamide]	1 to 2	–
Nc1ccccc1NC(=O)c1ccc(O[C@@H]2CCN(CC3CC3)C2)cc1 [Compound 62, (R)-N-(2-aminophenyl)-4-((1-(cyclopropylmethyl)pyrrolidin-3-yl)oxy)benzamide dihydrochloride]	1 to 2	–
CC1(CN2CC[C@@H](Oc3ccc(C(=O)Nc4ccccc4N)cc3)C2)CC1 [Compound 63, (R)-N-(2-aminophenyl)-4-((1-((1-methylcyclopropyl)methyl)pyrrolidin-3-yl)oxy)benzamide dihydrochloride]	2 to 3	–
Nc1ccccc1NC(=O)c1ccc(O[C@@H]2CCN(CC3CCCCC3)C2)cc1 [Compound 64, (R)-N-(2-aminophenyl)-4-((1-(cyclohexylmethyl)pyrrolidin-3-yl)oxy)benzamide dihydrochloride]	2 to 3	–
Nc1ccccc1NC(=O)c1ccc(OC2CCNCC2)cc1 [Compound 65, N-(2-aminophenyl)-4-(piperidin-4-yloxy)benzamide hydrochloride]	2 to 3	–
CN1CCC(Oc2ccc(C(=O)Nc3ccccc3N)cc2)CC1 [Compound 66, N-(2-aminophenyl)-4-((1-methylpiperidin-4-yl)oxy)benzamide dihydrochloride]	1 to 2	–
CC(C)CN1CCC(Oc2ccc(C(=O)Nc3ccccc3N)cc2)CC1 [Compound 67, N-(2-aminophenyl)-4-((1-isobutylpiperidin-4-yl)oxy)benzamide dihydrochloride]	1 to 2	–
CC1(CN2CCC(Oc3ccc(C(=O)Nc4ccccc4N)cc3)CC2)CC1 [Compound 68, N-(2-aminophenyl)-4-((1-((1-methylcyclopropyl)methyl)piperidin-4-yl)oxy)benzamide dihydrochloride]	1 to 2	–
Nc1ccccc1NC(=O)c1ccc(OC2CCN(CC3CCCCC3)CC2)cc1 [Compound 69, N-(2-aminophenyl)-4-((1-(cyclohexylmethyl)piperidin-4-yl)oxy)benzamide dihydrochloride]	1 to 2	–
Nc1ccccc1NC(=O)c1ccc(OC2CC3CCC(C2)N3)cc1 (centres unmarked) [Compound 70, 4-((8-azabicyclo[3.2.1]octan-3-yl)oxy)-N-(2-aminophenyl)benzamide hydrochloride]	1 to 2	–
CN1C2CCC1CC(Oc1ccc(C(=O)Nc3ccccc3N)cc1)C2 (centres unmarked) [Compound 71, N-(2-aminophenyl)-4-((8-methyl-8-azabicyclo[3.2.1]octan-3-yl)oxy)benzamide dihydrochloride]	–	1 to 2
CC(C)CN1C2CCC1CC(Oc1ccc(C(=O)Nc3ccccc3N)cc1)C2 (centres unmarked) [Compound 72, N-(2-aminophenyl)-4-((8-isobutyl-8-azabicyclo[3.2.1]octan-3-yl)oxy)benzamide dihydrochloride]	–	1 to 2
CC(C)(O)CN1C2CCC1CC(Oc1ccc(C(=O)Nc3ccccc3N)cc1)C2 (centres unmarked) [Compound 73, N-(2-aminophenyl)-4-((8-(2-hydroxy-2-methylpropyl)-8-azabicyclo[3.2.1]octan-3-yl)oxy)benzamide dihydrochloride]	–	1 to 2
CC(C)(C)CN1C2CCC1CC(Oc1ccc(C(=O)Nc3ccccc3N)cc1)C2 (centres unmarked) [Compound 74, N-(2-aminophenyl)-4-((8-neopentyl-8-azabicyclo[3.2.1]octan-3-yl)oxy)benzamide dihydrochloride]	–	1 to 2
Nc1ccccc1NC(=O)c1ccc(OC2CC3CCC(C2)N3CC2CC2)cc1 (centres unmarked) [Compound 75, N-(2-aminophenyl)-4-((8-(cyclopropylmethyl)-8-azabicyclo[3.2.1]octan-3-yl)oxy)benzamide dihydrochloride]	–	1 to 2
CC1(CN2C3CCC2CC(Oc2ccc(C(=O)Nc4ccccc4N)cc2)C3)CC1 (centres unmarked) [Compound 76, N-(2-aminophenyl)-4-((8-((1-methylcyclopropyl)methyl)-8-azabicyclo[3.2.1]octan-3-yl)oxy)benzamide dihydrochloride]	–	2 to 3
Nc1ccccc1NC(=O)c1ccc(OC2CC3CCC(C2)N3CC2CCCCC2)cc1 (centres unmarked) [Compound 77, N-(2-aminophenyl)-4-((8-(cyclohexylmethyl)-8-azabicyclo[3.2.1]octan-3-yl)oxy)benzamide dihydrochloride]	–	1 to 2
Nc1ccccc1NC(=O)c1ccc(NC2CCCNCC2)cc1 (centres unmarked) [Compound 78, N-(2-aminophenyl)-4-(azepan-4-ylamino)benzamide tris(2,2,2-trifluoroacetate)]	2 to 3	–
CC(C)CN1CCCC(Nc2ccc(C(=O)Nc3ccccc3N)cc2)CC1 (centres unmarked) [Compound 80, N-(2-aminophenyl)-4-((1-isobutylazepan-4-yl)amino)benzamide]	2 to 3	–
CC(C)(O)CN1CCCC(Nc2ccc(C(=O)Nc3ccccc3N)cc2)CC1 (centres unmarked) [Compound 81, N-(2-aminophenyl)-4-((1-(2-hydroxy-2-methylpropyl)azepan-4-yl)amino)benzamide trihydrochloride]	1 to 2	–
Nc1ccccc1NC(=O)c1ccc(NC2CCCN(CC3CC3)CC2)cc1 (centres unmarked) [Compound 83, N-(2-aminophenyl)-4-((1-(cyclopropylmethyl)azepan-4-yl)amino)benzamide trihydrochloride]	2 to 3	–
Nc1ccccc1NC(=O)c1ccc(NC2CCCN(CC3CCCCC3)CC2)cc1 (centres unmarked) [Compound 85, N-(2-aminophenyl)-4-((1-(cyclohexylmethyl)azepan-4-yl)amino)benzamide]	2 to 3	–
